In patent US20240124483A1, “Methods for the Treatment of Fibrotic Disease” (SHY Therapeutics, LLC, priority 2021, published 2024):

Tests used:
ERK1/2 phosphorylation = experiment: Western ERK1/2 Cell-Based Phosphorylation Assay; details: Homo sapiens, PANC-1, 6 hours, EGF 1.5 ng/ml, read-out: % inh of ERK1/2 phosphorylation in PANC-1
Protocol: Cell lines: Human tumor-derived pancreatic cancer cell line Panc-1 was purchased from American Type Culture Collection and grown in complete DMEM-High Glucose, supplemented with penicillin (100 U/mL), streptomycin (100 μg/mL), and 10% heat-inactivated FBS at 37° C. in a humidified incubator with 5% CO2.
(§1) Method: Cells were plated at 350000 cells/well density in a 12-well plate, allowed 3 hours to adhere to the plate, then starved in the appropriate medium in the presence of 0.5% FBS overnight. The small molecules to be tested were added to the cells in the final concentration of 10 μM in the presence of 0.3% DMSO for 6 hours incubation at 37° C. For IC50 value determination, serial dilutions of compounds were added to cells under the same conditions. Next, cells were stimulated with 1.5 ng/ml EGF for 15 minutes then cells were lysed with lysis buffer containing 1% Triton X-100, EDTA, and Halt™ Protease & Phosphatase Inhibitor Cocktail (Thermo Scientific). Protein concentration was assessed by BCA protein assay (Thermo Scientific). Phosphorylation level of ERK1/2 was determined by western blot.
(§2) Western blot protocol: Equal amounts of protein (15-50 μg) were separated by SDS-PAGE and transferred to nitrocellulose membranes (Invitrogen by Thermo Fisher Scientific). The membrane was stained with Ponceau S Stain (Boston BioProducts) to verify uniform protein loading. Membranes were blocked with 10% milk and phosphorylation levels of ERK1/2 were assessed by incubating overnight at 4° C. with anti-phospho-p44/42 (Thr202/Tyr204) antibody (Cell Signaling) followed by HRP-conjugated secondary antibody (Jackson Immunoresearch, West Grove, PA). Bands were incubated in Amersham ECL Prime Western Blotting Detection Reagent (GE Healthcare) and visualized using the ChemiDoc MP imaging system (Bio-Rad).

AKT phosphorylation = experiment: Western AKT Cell-Based Phosphorylation Assay; details: Homo sapiens, PANC-1, 6 hours, EGF 1.5 ng/ml, read-out: % inh of AKT phosphorylation in PANC-1
Protocol: Human tumor-derived pancreatic cancer cell line Panc-1 was purchased from American Type Culture Collection and grown in complete DMEM-High Glucose supplemented with penicillin (100 U/mL), streptomycin (100 μg/mL), and 10% heat-inactivated FBS at 37° C. in a humidified incubator with 5% CO2.
as §1, with “C.” for “C. For IC50 value determination, serial dilutions of compounds were added to cells under the same conditions.”, “Akt” for “ERK1/2”
as §2, with “Akt” for “ERK1/2”, “anti-phospho-Akt (Ser473)” for “anti-phospho-p44/42 (Thr202/Tyr204)”

Row | SMILES | inhibition at 10 µM (ERK1/2 phosphorylation) [%] | inhibition at 10 µM (AKT phosphorylation) [%]
1 | COc1cccc(-c2sc3nc(-c4nccn4C)nc(N[C@@H]4CC[C@@H](OC)C4)c3c2C)c1F (racemic) [Compound 43, rac-6-(2-Fluoro-3-methoxyphenyl)-N-((1R,3R)-3-methoxycyclopentyl)-5-methyl-2-(1-methyl-1H-imidazol-2-yl)thieno[2,3-d]pyrimidin-4-amine] | 46 to 75 | 0
2 | CO[C@H]1C[C@H](CNc2nc(-c3nccn3C)nc3sc(-c4ccn(C(C)C)n4)c(C)c23)C1 [Compound 16, 6-(1-Isopropyl-1H-pyrazol-3-yl)-N-(((1r,3r)-3-methoxycyclobutyl)methyl)-5-methyl-2-(1-methyl-1H-imidazol-2-yl)thieno[2,3-d]pyrimidin-4-amine] | 76 to 100 | 0
3 | COc1cccc(Nc2nc(-c3nccn3C)nc3sc(-c4ccn(C(C)C)n4)c(C)c23)c1 [Compound 17, 6-(1-Isopropyl-1H-pyrazol-3-yl)-N-(3-methoxyphenyl)-5-methyl-2-(1-methyl-1H-imidazol-2-yl)thieno[2,3-d]pyrimidin-4-amine] | 76 to 100 | 46 to 75
4 | COc1cccc(Nc2nc(-c3nccn3C)nc3sc(-c4ccn(C(C)C)n4)c(C)c23)n1 [Compound 18, 6-(1-Isopropyl-1H-pyrazol-3-yl)-N-(6-methoxypyridin-2-yl)-5-methyl-2-(1-methyl-1H-imidazol-2-yl)thieno[2,3-d]pyrimidin-4-amine] | 0 | 26 to 45
5 | COc1cc(Nc2nc(-c3nccn3C)nc3sc(-c4ccn(C(C)C)n4)c(C)c23)ncn1 [Compound 19, 6-(1-Isopropyl-1H-pyrazol-3-yl)-N-(6-methoxypyrimidin-4-yl)-5-methyl-2-(1-methyl-1H-imidazol-2-yl)thieno[2,3-d]pyrimidin-4-amine] | 76 to 100 | 76 to 100
6 | COCCOCCNc1nc(-c2nccn2C)nc2sc(-c3ccn(C(C)C)n3)c(C)c12 [Compound 21, 6-(1-Isopropyl-1H-pyrazol-3-yl)-N-(2-(2-methoxyethoxy)ethyl)-5-methyl-2-(1-methyl-1H-imidazol-2-yl)thieno[2,3-d]pyrimidin-4-amine] | 0 | 1 to 25
7 | Cc1c(-c2ccn(C(C)C)n2)sc2nc(-c3nccn3C)nc(NCCN3CCOCC3)c12 [Compound 22, 6-(1-Isopropyl-1H-pyrazol-3-yl)-5-methyl-2-(1-methyl-1H-imidazol-2-yl)-N-(2-morpholinoethyl)thieno[2,3-d]pyrimidin-4-amine] | 0 | 1 to 25
8 | Cc1c(-c2ccn(C(C)C)n2)sc2nc(-c3nccn3C)nc(NCCN3CCS(=O)(=O)CC3)c12 [Compound 23, 4-(2-((6-(1-Isopropyl-1H-pyrazol-3-yl)-5-methyl-2-(1-methyl-1H-imidazol-2-yl)thieno[2,3-d]pyrimidin-4-yl)amino)ethyl)thiomorpholine 1,1-dioxide] | 0 | 0
9 | CO[C@H]1CNC[C@@H](Nc2nc(-c3nccn3C)nc3sc(-c4ccn(C(C)C)n4)cc23)C1 [Compound 28, 6-(1-Isopropyl-1H-pyrazol-3-yl)-N-((3S,5R)-5-methoxypiperidin-3-yl)-2-(1-methyl-1H-imidazol-2-yl)thieno[2,3-d]pyrimidin-4-amine] | 46 to 75 | 26 to 45
10 | COCCn1c(-c2nccn2C)nc2sc(-c3ccn(C(C)C)n3)c(C)c2c1=O [Compound 29, 6-(1-Isopropyl-1H-pyrazol-3-yl)-3-(2-methoxyethyl)-5-methyl-2-(1-methyl-1H-imidazol-2-yl)thieno[2,3-d]pyrimidin-4(3H)-one] | 0 | 0
11 | COCCOc1nc(-c2nccn2C)nc2sc(-c3ccn(C(C)C)n3)c(C)c12 [Compound 30, 6-(1-Isopropyl-1H-pyrazol-3-yl)-4-(2-methoxyethoxy)-5-methyl-2-(1-methyl-1H-imidazol-2-yl)thieno[2,3-d]pyrimidine] | 0 | 0
12 | COCCCn1c(-c2nccn2C)nc2sc(-c3ccn(C(C)C)n3)c(C)c2c1=O [Compound 31, 6-(1-Isopropyl-1H-pyrazol-3-yl)-3-(3-methoxypropyl)-5-methyl-2-(1-methyl-1H-imidazol-2-yl)thieno[2,3-d]pyrimidin-4(3H)-one] | 0 | 0
13 | COCCCOc1nc(-c2nccn2C)nc2sc(-c3ccn(C(C)C)n3)c(C)c12 [Compound 32, 6-(1-Isopropyl-1H-pyrazol-3-yl)-4-(3-methoxypropoxy)-5-methyl-2-(1-methyl-1H-imidazol-2-yl)thieno[2,3-d]pyrimidine] | 0 | 1 to 25
14 | COCCCCn1c(-c2nccn2C)nc2sc(-c3ccn(C(C)C)n3)c(C)c2c1=O [Compound 33, 6-(1-Isopropyl-1H-pyrazol-3-yl)-3-(4-methoxybutyl)-5-methyl-2-(1-methyl-1H-imidazol-2-yl)thieno[2,3-d]pyrimidin-4(3H)-one] | 0 | 0
15 | COCCCCOc1nc(-c2nccn2C)nc2sc(-c3ccn(C(C)C)n3)c(C)c12 [Compound 34, 6-(1-Isopropyl-1H-pyrazol-3-yl)-4-(4-methoxybutoxy)-5-methyl-2-(1-methyl-1H-imidazol-2-yl)thieno[2,3-d]pyrimidine] | 0 | 0
16 | COc1cc(Cn2c(-c3nccn3C)nc3sc(-c4ccn(C(C)C)n4)c(C)c3c2=O)ncn1 [Compound 35, 6-(1-Isopropyl-1H-pyrazol-3-yl)-3-((6-methoxypyrimidin-4-yl)methyl)-5-methyl-2-(1-methyl-1H-imidazol-2-yl)thieno[2,3-d]pyrimidin-4(3H)-one] | 0 | 0
17 | COCCCn1c(-c2nccn2C)nc2sc(-c3ccn(C(C)C)n3)c(-c3ccccc3)c2c1=O [Compound 36, 6-(1-Isopropyl-1H-pyrazol-3-yl)-3-(3-methoxypropyl)-2-(1-methyl-1H-imidazol-2-yl)-5-phenylthieno[2,3-d]pyrimidin-4(3H)-one] | 0 | 0
18 | COCCCOc1nc(-c2nccn2C)nc2sc(-c3ccn(C(C)C)n3)c(-c3ccccc3)c12 [Compound 37, 6-(1-Isopropyl-1H-pyrazol-3-yl)-4-(3-methoxypropoxy)-2-(1-methyl-1H-imidazol-2-yl)-5-phenylthieno[2,3-d]pyrimidine] | 0 | 0
19 | COc1cccc(-c2sc3nc(-c4nccn4C)nc(N[C@H]4C[C@H](OC)C4)c3c2C)c1F [Compound 42, 6-(2-Fluoro-3-methoxyphenyl)-N-((1r,3r)-3-methoxycyclobutyl)-5-methyl-2-(1-methyl-1H-imidazol-2-yl)thieno[2,3-d]pyrimidin-4-amine] | 46 to 75 | 26 to 45
